Laboratory results as given in ChEMBL document CHEMBL1909046, “DrugMatrix in vitro pharmacology data”.

Legend:
Cytochrome P450 2C9 = Cytochrome P450 2C9 (Homo sapiens, UniProt P11712); conditions: bti-tn-5b1-4; note: in other assays of this panel Not Active means under 50% inhibition at 10 µM
Leukotriene C4 synthase = biological target: T1, Leukotriene C4 synthase (Cavia porcellus, UniProt A6XA80); assay type: tissue-based, Lung;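 note: enzyme inhibition assay of leukotriene C4 synthase, using LTA4 as the substrate; in other assays of this panel Not Active means under 50% inhibition at 10 µM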
T1 sequence (A6XA80 whole entry): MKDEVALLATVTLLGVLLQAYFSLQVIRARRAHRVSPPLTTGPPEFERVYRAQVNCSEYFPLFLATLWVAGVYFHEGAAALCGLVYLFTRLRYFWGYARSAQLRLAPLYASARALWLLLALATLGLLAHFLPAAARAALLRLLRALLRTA

[1] = biological target: C-C chemokine receptor type 5 (Homo sapiens, UniProt P51681); assay type: cell membranes, Membrane; conditions: hek293; note: in other assays of this panel Not Active means under 50% inhibition at 10 µM
[2] = DRUGMATRIX: GABAA, Muscimol, Central radioligand binding (ligand: [3H] Muscimol); assay type: cell membranes, Rattus norvegicus, Wistar, Brain, Membrane; conditions: Not Active = under 50% inhibition at 10 µM
[3] = biological target: 5-hydroxytryptamine receptor 6 (Homo sapiens, UniProt P50406); assay type: cell membranes, HeLa, Membrane; conditions: hela; note: in other assays of this panel Not Active means under 50% inhibition at 10 µM
[4] = biological target: T2, 3-hydroxy-3-methylglutaryl-coenzyme A reductase (Homo sapiens, UniProt P04035); set-up: species or system Escherichia coli
T2 sequence (P04035 whole entry): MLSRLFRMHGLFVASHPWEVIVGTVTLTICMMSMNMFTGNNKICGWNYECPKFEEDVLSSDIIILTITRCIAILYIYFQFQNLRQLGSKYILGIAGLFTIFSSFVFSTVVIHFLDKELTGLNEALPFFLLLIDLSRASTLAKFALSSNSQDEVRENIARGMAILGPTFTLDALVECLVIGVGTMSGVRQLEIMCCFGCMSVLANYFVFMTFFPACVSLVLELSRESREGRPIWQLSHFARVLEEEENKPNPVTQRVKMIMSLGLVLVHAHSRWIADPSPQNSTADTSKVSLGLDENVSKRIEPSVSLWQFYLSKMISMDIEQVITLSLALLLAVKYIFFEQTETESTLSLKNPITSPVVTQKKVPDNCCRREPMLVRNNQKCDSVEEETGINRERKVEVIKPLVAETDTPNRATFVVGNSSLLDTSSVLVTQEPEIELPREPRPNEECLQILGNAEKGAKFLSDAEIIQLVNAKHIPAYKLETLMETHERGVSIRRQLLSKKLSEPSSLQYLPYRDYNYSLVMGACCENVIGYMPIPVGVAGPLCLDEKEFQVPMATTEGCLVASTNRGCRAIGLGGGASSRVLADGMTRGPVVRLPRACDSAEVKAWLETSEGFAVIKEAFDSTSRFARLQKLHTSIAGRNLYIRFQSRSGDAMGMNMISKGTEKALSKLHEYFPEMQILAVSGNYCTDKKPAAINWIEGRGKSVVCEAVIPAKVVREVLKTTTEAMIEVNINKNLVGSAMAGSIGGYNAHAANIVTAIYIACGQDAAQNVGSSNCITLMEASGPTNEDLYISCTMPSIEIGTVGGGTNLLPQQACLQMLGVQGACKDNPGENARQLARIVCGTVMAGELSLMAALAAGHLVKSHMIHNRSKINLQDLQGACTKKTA

Cytochrome P450 2E1 = Cytochrome P450 2E1 (Homo sapiens, UniProt P05181); conditions: bti-tn-5b1-4; note: in other assays of this panel Not Active means under 50% inhibition at 10 µM
[5] = biological target: Mitogen-activated protein kinase 1 (Homo sapiens, UniProt P28482); experiment: DRUGMATRIX: Protein Serine/Threonine Kinase, ERK2 enzyme inhibition (substrate: Myelin Basic Protein); set-up: species or system Escherichia coli; conditions: Not Active = under 50% inhibition at 10 µM
Sequence of Mitogen-activated protein kinase 1 (P28482 whole entry): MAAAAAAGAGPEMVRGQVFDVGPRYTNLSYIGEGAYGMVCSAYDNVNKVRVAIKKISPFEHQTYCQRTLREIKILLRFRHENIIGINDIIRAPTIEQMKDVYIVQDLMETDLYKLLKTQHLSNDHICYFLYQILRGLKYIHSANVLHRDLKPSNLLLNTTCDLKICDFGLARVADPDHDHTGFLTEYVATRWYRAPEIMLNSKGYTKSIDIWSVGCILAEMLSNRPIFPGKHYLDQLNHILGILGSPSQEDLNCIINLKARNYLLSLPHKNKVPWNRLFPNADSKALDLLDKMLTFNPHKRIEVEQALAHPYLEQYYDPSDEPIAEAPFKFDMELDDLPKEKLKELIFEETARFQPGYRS

Sequence of C-C chemokine receptor type 5 (P51681 whole entry): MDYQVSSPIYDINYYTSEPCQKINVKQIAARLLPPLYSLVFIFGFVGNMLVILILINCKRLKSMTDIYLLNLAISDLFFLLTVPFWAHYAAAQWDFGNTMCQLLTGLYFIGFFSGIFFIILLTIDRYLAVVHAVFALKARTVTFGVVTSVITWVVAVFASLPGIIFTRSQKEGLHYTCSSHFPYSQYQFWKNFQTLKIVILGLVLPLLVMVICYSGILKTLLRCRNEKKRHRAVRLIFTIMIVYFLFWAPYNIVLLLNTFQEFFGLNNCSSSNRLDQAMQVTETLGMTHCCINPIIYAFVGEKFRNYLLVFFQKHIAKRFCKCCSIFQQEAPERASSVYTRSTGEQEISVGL
Sequence of 5-hydroxytryptamine receptor 6 (P50406 whole entry): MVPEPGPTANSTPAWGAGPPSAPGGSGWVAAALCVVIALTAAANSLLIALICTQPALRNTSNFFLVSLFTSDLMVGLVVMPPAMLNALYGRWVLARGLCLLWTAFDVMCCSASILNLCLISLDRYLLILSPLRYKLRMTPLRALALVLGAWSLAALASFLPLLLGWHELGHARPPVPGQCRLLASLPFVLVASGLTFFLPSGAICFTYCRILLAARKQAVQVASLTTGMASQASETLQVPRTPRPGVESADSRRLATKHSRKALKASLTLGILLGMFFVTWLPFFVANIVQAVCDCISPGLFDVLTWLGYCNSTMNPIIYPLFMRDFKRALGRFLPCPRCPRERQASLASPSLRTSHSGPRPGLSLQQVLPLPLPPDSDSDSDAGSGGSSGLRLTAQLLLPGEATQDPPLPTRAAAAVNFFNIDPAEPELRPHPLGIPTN
Sequence of Cytochrome P450 2C9 (P11712 whole entry): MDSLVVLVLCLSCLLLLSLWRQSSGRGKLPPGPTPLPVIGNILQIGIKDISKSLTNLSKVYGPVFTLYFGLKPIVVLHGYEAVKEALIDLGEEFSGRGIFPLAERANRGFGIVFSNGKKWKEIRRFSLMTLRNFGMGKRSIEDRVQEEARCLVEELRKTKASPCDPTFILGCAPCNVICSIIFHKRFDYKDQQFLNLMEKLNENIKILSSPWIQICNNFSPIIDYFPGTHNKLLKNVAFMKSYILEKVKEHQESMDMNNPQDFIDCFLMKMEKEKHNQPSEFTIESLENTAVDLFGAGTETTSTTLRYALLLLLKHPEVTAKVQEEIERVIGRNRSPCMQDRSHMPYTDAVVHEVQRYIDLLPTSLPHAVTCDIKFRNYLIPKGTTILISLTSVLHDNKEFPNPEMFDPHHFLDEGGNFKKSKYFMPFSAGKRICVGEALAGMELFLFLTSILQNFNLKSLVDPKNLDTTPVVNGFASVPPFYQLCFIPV
Sequence of Cytochrome P450 2E1 (P05181 whole entry): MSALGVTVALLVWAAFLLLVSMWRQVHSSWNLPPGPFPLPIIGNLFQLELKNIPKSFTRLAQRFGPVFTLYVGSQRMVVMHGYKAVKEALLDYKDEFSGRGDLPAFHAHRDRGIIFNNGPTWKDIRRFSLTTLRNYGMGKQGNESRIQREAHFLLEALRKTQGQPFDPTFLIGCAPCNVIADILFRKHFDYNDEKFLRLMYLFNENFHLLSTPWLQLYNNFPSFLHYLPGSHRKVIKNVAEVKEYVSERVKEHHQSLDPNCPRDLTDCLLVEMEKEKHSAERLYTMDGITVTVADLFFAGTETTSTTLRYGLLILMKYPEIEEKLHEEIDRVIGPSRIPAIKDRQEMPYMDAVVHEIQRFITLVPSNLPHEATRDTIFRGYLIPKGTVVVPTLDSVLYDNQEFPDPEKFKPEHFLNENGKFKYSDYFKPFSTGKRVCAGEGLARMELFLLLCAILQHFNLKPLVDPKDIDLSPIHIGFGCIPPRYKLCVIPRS

C#C[C@]1(O)CC[C@H]2[C@@H]3CCC4=CC(=O)CC[C@]4(C)[C@H]3CC[C@@]21C [ETHISTERONE]
Not Active: IC50 (Cytochrome P450 2C9) | Ki (Cytochrome P450 2C9) | IC50 (Leukotriene C4 synthase) | IC50 [1] | IC50 [2] | Ki [2] | IC50 [3] | IC50 [4] | IC50 (Cytochrome P450 2E1) | Ki (Cytochrome P450 2E1) | IC50 [5]

CC(O)(P(=O)(O)O)P(=O)(O)O [ETIDRONIC ACID]
Not Active: IC50 (Cytochrome P450 2C9) | Ki (Cytochrome P450 2C9) | IC50 (Leukotriene C4 synthase) | IC50 [1] | IC50 [2] | Ki [2] | IC50 [3] | IC50 [4] | IC50 (Cytochrome P450 2E1) | Ki (Cytochrome P450 2E1) | IC50 [5]

CN1CCN(c2c(F)cc3c(=O)c(C(=O)O)cn(CCF)c3c2F)CC1 [FLEROXACIN]
Not Active: IC50 (Cytochrome P450 2C9) | Ki (Cytochrome P450 2C9) | IC50 (Leukotriene C4 synthase) | IC50 [1] | IC50 [2] | Ki [2] | IC50 [3] | IC50 [4] | IC50 (Cytochrome P450 2E1) | Ki (Cytochrome P450 2E1) | IC50 [5]

O=c1[nH]c(=O)n([C@H]2C[C@H](O)[C@@H](CO)O2)cc1F [FLOXURIDINE]
Not Active: IC50 (Cytochrome P450 2C9) | Ki (Cytochrome P450 2C9) | IC50 (Leukotriene C4 synthase) | IC50 [1] | IC50 [2] | Ki [2] | IC50 [3] | IC50 [4] | IC50 (Cytochrome P450 2E1) | Ki (Cytochrome P450 2E1) | IC50 [5]

COC(=O)Nc1nc2cc(C(=O)c3ccc(F)cc3)ccc2[nH]1 [FLUBENDAZOLE]
Not Active: IC50 (Cytochrome P450 2C9) | Ki (Cytochrome P450 2C9) | IC50 (Leukotriene C4 synthase) | IC50 [1] | IC50 [2] | Ki [2] | IC50 [3] | IC50 [4] | IC50 (Cytochrome P450 2E1) | Ki (Cytochrome P450 2E1) | IC50 [5]

CC(=O)OCC(=O)[C@@]1(O)CC[C@H]2[C@@H]3CCC4=CC(=O)CC[C@]4(C)[C@@]3(F)[C@@H](O)C[C@@]21C [FLUDROCORTISONE ACETATE]
Not Active: IC50 (Cytochrome P450 2C9) | Ki (Cytochrome P450 2C9) | IC50 (Leukotriene C4 synthase) | IC50 [1] | IC50 [2] | Ki [2] | IC50 [3] | IC50 [4] | IC50 (Cytochrome P450 2E1) | Ki (Cytochrome P450 2E1) | IC50 [5]

CCOC(=O)c1ncn2c1CN(C)C(=O)c1cc(F)ccc1-2 [FLUMAZENIL]
Not Active: IC50 (Cytochrome P450 2C9) | Ki (Cytochrome P450 2C9) | IC50 (Leukotriene C4 synthase) | IC50 [1] | IC50 [2] | Ki [2] | IC50 [3] | IC50 [4] | IC50 (Cytochrome P450 2E1) | Ki (Cytochrome P450 2E1) | IC50 [5]

O=C(O)P(=O)(O)O [FOSCARNET]
Not Active: IC50 (Cytochrome P450 2C9) | Ki (Cytochrome P450 2C9) | IC50 (Leukotriene C4 synthase) | IC50 [1] | IC50 [2] | Ki [2] | IC50 [3] | IC50 [4] | IC50 (Cytochrome P450 2E1) | Ki (Cytochrome P450 2E1) | IC50 [5]

Cc1ccc(C)c(OCCCC(C)(C)C(=O)O)c1 [GEMFIBROZIL]
Not Active: IC50 (Cytochrome P450 2C9) | Ki (Cytochrome P450 2C9) | IC50 (Leukotriene C4 synthase) | IC50 [1] | IC50 [2] | Ki [2] | IC50 [3] | IC50 [4] | IC50 (Cytochrome P450 2E1) | Ki (Cytochrome P450 2E1) | IC50 [5]

O=c1c(-c2ccc(O)cc2)coc2cc(O)cc(O)c12 [GENISTEIN]
Not Active: IC50 (Cytochrome P450 2C9) | Ki (Cytochrome P450 2C9) | IC50 (Leukotriene C4 synthase) | IC50 [1] | IC50 [2] | Ki [2] | IC50 [3] | IC50 [4] | IC50 (Cytochrome P450 2E1) | Ki (Cytochrome P450 2E1) | IC50 [5]

Nc1cc(-c2ccncc2)c[nH]c1=O [INAMRINONE]
Not Active: IC50 (Cytochrome P450 2C9) | Ki (Cytochrome P450 2C9) | IC50 (Leukotriene C4 synthase) | IC50 [1] | IC50 [2] | Ki [2] | IC50 [3] | IC50 [4] | IC50 (Cytochrome P450 2E1) | Ki (Cytochrome P450 2E1) | IC50 [5]
